From paper PMC4460250, “Systems Pharmacology Dissecting Holistic Medicine for Treatment of Complex Diseases: An Example Using Cardiocerebrovascular Diseases Treated by TCM” (Evidence-based Complementary and Alternative Medicine : eCAM, 2015)

Columns and labels:
[1] = in vivo
[2] = in vivo; cited from earlier work

Row | SMILES | Class(High: HIA value ≥0.7; Low: HIA value < 0.7) [1] | HIA(Human Intestinal Absorption) [2]
1 | C[C@]12CC[C@H]3[C@@H](CCC4=CC(=O)CC[C@@]43C)[C@@H]1CC[C@@H]2O [Testosterone] | High (key: High: HIA value ≥0.7; Low: HIA value < 0.7) | 1
2 | COc1cc2nc(N3CCN(C(=O)[C@H]4COc5ccccc5O4)CC3)nc(N)c2cc1OC [Doxazosin(R)] | High (key: High: HIA value ≥0.7; Low: HIA value < 0.7) | 1
3 | COC(=O)C1=C(C)NC(C)=C(C(=O)OC(C)C)[C@H]1c1cccc2nonc12 [Isradipine(S)] | High (key: High: HIA value ≥0.7; Low: HIA value < 0.7) | 0.92
4 | COC(=O)C1=C(C)NC(C)=C(C(=O)OC(C)C)[C@@H]1c1cccc2nonc12 [Isradipine(R)] | High (key: High: HIA value ≥0.7; Low: HIA value < 0.7) | 0.92
5 | CCN(CC)CCN1C(=O)CN=C(c2ccccc2F)c2cc(Cl)ccc21 [Flurazepam] | High (key: High: HIA value ≥0.7; Low: HIA value < 0.7) | 1
6 | CCN(CC)[C@H](C)C(=O)c1ccccc1 [Diethylpropion(R)] | High (key: High: HIA value ≥0.7; Low: HIA value < 0.7) | 0.95
7 | COc1ccc(CCN(C)CCC[C@](C#N)(c2cc(OC)c(OC)c(OC)c2)C(C)C)cc1OC [Gallopamil(R)] | High (key: High: HIA value ≥0.7; Low: HIA value < 0.7) | 0.97
8 | CCCCC(C)(O)C/C=C/[C@H]1[C@H](O)CC(=O)[C@@H]1CCCCCCC(=O)OC (stereo partly drawn) [Misoprostol(R)] | High (key: High: HIA value ≥0.7; Low: HIA value < 0.7) | 0.88
9 | COC(=O)C1=C(C#N)NC(C)=C(C(=O)OC(C)C)[C@H]1c1cccc([N+](=O)[O-])c1 [Nilvadipine(R)] | High (key: High: HIA value ≥0.7; Low: HIA value < 0.7) | 1
10 | CC(C)(C)NC[C@H](O)c1cc(O)cc(O)c1 [Terbutaline(R)] | Low (key: High: HIA value ≥0.7; Low: HIA value < 0.7) | 0.63
11 | CN1C[C@H](C(=O)N[C@]2(C)O[C@@]3(O)[C@@H]4CCCN4C(=O)[C@H](Cc4ccccc4)N3C2=O)C=C2c3cccc4[nH]cc(c34)C[C@H]21 [Ergotamine] | High (key: High: HIA value ≥0.7; Low: HIA value < 0.7) | 1
12 | O=C1CN=C(c2ccccc2Cl)c2cc([N+](=O)[O-])ccc2N1 [Clonazepam] | High (key: High: HIA value ≥0.7; Low: HIA value < 0.7) | 0.8
13 | CC(C)NC[C@@H](O)c1ccc(NS(C)(=O)=O)cc1 [Sotalol(S)] | High (key: High: HIA value ≥0.7; Low: HIA value < 0.7) | 0.95
14 | CN1C(=O)CC(=O)N(c2ccccc2)c2cc(Cl)ccc21 [Clobazam] | High (key: High: HIA value ≥0.7; Low: HIA value < 0.7) | 0.87
15 | C[C@H](N[C@@H](CCc1ccccc1)C(=O)O)C(=O)N1CCC[C@H]1C(=O)O [Enalaprilat] | Low (key: High: HIA value ≥0.7; Low: HIA value < 0.7) | 0.25
16 | CN1CCCC1c1cccnc1 (stereo in doubt) [Nicotine(R)] | High (key: High: HIA value ≥0.7; Low: HIA value < 0.7) | 1
17 | CCN(CC)CCCOC(=O)C1(c2ccccc2)CC2CCC1C2 (stereo not drawn) [Bornaprine] | High (key: High: HIA value ≥0.7; Low: HIA value < 0.7) | 1
18 | CC(=O)Nc1ccc(OC[C@H](O)CNC(C)C)cc1 [Practolol(R)] | High (key: High: HIA value ≥0.7; Low: HIA value < 0.7) | 0.95
19 | CO/N=C(\C(=O)N[C@@H]1C(=O)N2C(C(=O)OC(C)OC(C)=O)=C(COC(N)=O)CS[C@H]12)c1ccco1 (stereo partly drawn) [Cefuroximeaxetil(R)] | Low (key: High: HIA value ≥0.7; Low: HIA value < 0.7) | 0.36
20 | C[C@]12CC[C@@H]3c4ccc(OC(=O)N(CCCl)CCCl)cc4CC[C@H]3[C@@H]1CC[C@@H]2O [Estramustine] | High (key: High: HIA value ≥0.7; Low: HIA value < 0.7) | 0.75
21 | O=C(O)CCCc1ccc(N(CCCl)CCCl)cc1 [Chlorambucil] | High (key: High: HIA value ≥0.7; Low: HIA value < 0.7) | 1

Row | SMILES | Class(High: HIA value ≥0.7; Low: HIA value < 0.7) [1] | HIA(Human Intestinal Absorption) [2]
22 | CC(C)(C)NC[C@H](O)COc1ccccc1C1CCCC1 [Penbutolol(S)] | High (key: High: HIA value ≥0.7; Low: HIA value < 0.7) | 1
23 | Cc1cccc(C)c1OC[C@@H](C)N [Mexiletine(R)] | High (key: High: HIA value ≥0.7; Low: HIA value < 0.7) | 0.98
24 | CC[C@@H](c1ccccc1)c1c(O)c2ccccc2oc1=O [Phenprocoumon(S)] | High (key: High: HIA value ≥0.7; Low: HIA value < 0.7) | 0.95
25 | COC(=O)C(c1ccccc1)C1CCCCN1 (stereo not drawn) [Methylphenidate] | High (key: High: HIA value ≥0.7; Low: HIA value < 0.7) | 0.8
26 | CCCCCCCN(CC)CCC[C@H](O)c1ccc(NS(C)(=O)=O)cc1 [Ibutilide(S)] | High (key: High: HIA value ≥0.7; Low: HIA value < 0.7) | 0.82
27 | CC(C)(C)NC[C@H](O)COc1cccc2c1CCC(=O)N2 [Carteolol(S)] | High (key: High: HIA value ≥0.7; Low: HIA value < 0.7) | 0.95
28 | COc1ccc(CCN(C)CCC[C@@](C#N)(c2cc(OC)c(OC)c(OC)c2)C(C)C)cc1OC [Gallopamil(S)] | High (key: High: HIA value ≥0.7; Low: HIA value < 0.7) | 0.97
29 | C=CCOc1ccccc1OC[C@H](O)CNC(C)C [Oxprenolol(R)] | High (key: High: HIA value ≥0.7; Low: HIA value < 0.7) | 0.95
30 | CCOC(=O)[C@H](CCc1ccccc1)N[C@@H](C)C(=O)N1[C@H](C(=O)O)C[C@@H]2CCC[C@@H]21 [Ramipril] | Low (key: High: HIA value ≥0.7; Low: HIA value < 0.7) | 0.6
31 | CCN[C@@H](C)Cc1cccc(C(F)(F)F)c1 [Fenfluramine(S)] | High (key: High: HIA value ≥0.7; Low: HIA value < 0.7) | 0.95
32 | C#CCN(C)[C@H](C)Cc1ccccc1 [Selegiline(R)] | High (key: High: HIA value ≥0.7; Low: HIA value < 0.7) | 1
33 | CC[C@@]1(c2cccc(O)c2)CCCCN(C)C1 [Meptazinol(S)] | High (key: High: HIA value ≥0.7; Low: HIA value < 0.7) | 1
34 | COC(=O)C1=C(C)NC(C)=C(C(=O)OCCN(C)Cc2ccccc2)[C@H]1c1cccc([N+](=O)[O-])c1 [Nicardipine(S)] | High (key: High: HIA value ≥0.7; Low: HIA value < 0.7) | 0.95
35 | NC[C@@H](CC(=O)O)c1ccc(Cl)cc1 [Baclofen(S)] | High (key: High: HIA value ≥0.7; Low: HIA value < 0.7) | 0.95
36 | CC(=O)NCCCS(=O)(=O)O [Acamprosate] | Low (key: High: HIA value ≥0.7; Low: HIA value < 0.7) | 0.11
37 | CCCCC(=O)N(Cc1ccc(-c2ccccc2-c2nnn[nH]2)cc1)[C@H](C(=O)O)C(C)C [Valsartan(S)] | Low (key: High: HIA value ≥0.7; Low: HIA value < 0.7) | 0.55
38 | N=C(N)NC[C@H]1COC2(CCCCC2)O1 [Guanadrel(S)] | High (key: High: HIA value ≥0.7; Low: HIA value < 0.7) | 0.8
39 | CC(N)C(O)c1ccccc1 (stereo not drawn) [Phenylpropanolamine] | High (key: High: HIA value ≥0.7; Low: HIA value < 0.7) | 0.95
40 | CC(C)NC[C@H](O)COc1cccc2[nH]ccc12 [Pindolol(S)] | High (key: High: HIA value ≥0.7; Low: HIA value < 0.7) | 0.9
41 | COC(=O)[C@H](c1ccccc1Cl)N1CCc2sccc2C1 [Clopidogrel(S)] | Low (key: High: HIA value ≥0.7; Low: HIA value < 0.7) | 0.5
42 | NCC(=O)O [Glycine] | High (key: High: HIA value ≥0.7; Low: HIA value < 0.7) | 1
